What was measured:
a1B adrenergic receptor = biological target: T1, a1B adrenergic receptor (Homo sapiens, UniProt P35368); experiment: Binding affinity to a1 adrenergic receptors, tritium-labeled prazosin tracer; conditions: tritium-labeled prazosin as tracer
T1 sequence (P35368 1-520): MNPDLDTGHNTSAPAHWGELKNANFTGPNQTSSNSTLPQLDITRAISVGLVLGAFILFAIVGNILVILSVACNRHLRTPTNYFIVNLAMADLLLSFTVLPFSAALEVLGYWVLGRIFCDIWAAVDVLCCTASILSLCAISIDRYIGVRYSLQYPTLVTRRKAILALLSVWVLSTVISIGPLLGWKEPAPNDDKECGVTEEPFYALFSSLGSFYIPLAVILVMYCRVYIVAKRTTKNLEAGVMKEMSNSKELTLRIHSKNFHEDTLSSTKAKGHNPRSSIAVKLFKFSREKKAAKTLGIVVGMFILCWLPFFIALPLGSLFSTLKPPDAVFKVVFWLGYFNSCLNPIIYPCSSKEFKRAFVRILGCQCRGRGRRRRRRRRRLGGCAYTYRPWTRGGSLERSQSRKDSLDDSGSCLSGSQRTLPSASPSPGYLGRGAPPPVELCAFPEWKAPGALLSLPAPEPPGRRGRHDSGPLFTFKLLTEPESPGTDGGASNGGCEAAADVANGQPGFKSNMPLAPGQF
Method: (§1) [Binding Affinity to a1 Adrenergic Receptors]
(§2) The compound 1 was assayed for its inhibitory activity against a1A adrenergic receptor and a1B adrenergic receptor using prazosin with a 7-methoxy group labeled with tritium as a tracer, and binding affinity was examined. Prazosin is an antagonist that specifically binds to a1 adrenergic receptors.

a1A adrenergic receptor = biological target: T2, a1A adrenergic receptor (Homo sapiens, UniProt P35348); experiment: as above; conditions: tritium-labeled prazosin as tracer
T2 sequence (P35348 1-466): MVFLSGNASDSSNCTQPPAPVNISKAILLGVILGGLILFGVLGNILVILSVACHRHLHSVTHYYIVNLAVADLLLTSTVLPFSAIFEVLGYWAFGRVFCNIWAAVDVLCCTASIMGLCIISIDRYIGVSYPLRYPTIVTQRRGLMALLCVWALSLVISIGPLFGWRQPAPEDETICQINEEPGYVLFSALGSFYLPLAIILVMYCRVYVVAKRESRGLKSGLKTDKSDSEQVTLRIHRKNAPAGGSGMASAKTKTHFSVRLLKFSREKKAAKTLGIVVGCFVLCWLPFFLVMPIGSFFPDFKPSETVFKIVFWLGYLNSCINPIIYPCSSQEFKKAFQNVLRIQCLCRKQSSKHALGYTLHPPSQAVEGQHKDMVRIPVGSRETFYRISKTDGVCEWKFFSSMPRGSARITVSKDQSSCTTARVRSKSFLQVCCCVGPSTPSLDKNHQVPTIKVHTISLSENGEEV
Method: as §1, §2

a2A adrenergic receptor [1] = biological target: T3, a2A adrenergic receptor (Homo sapiens, UniProt P08913); experiment: TGFα shedding assay in transfected HEK293 cells, noradrenaline stimulation; type: cell-based; conditions: 5 nM Noradrenaline stimulation, read-out: IC50, shedding assay, α2A
T3 construct: expressed in transfected cells; host or cells: HEK293
T3 sequence (P08913 1-465): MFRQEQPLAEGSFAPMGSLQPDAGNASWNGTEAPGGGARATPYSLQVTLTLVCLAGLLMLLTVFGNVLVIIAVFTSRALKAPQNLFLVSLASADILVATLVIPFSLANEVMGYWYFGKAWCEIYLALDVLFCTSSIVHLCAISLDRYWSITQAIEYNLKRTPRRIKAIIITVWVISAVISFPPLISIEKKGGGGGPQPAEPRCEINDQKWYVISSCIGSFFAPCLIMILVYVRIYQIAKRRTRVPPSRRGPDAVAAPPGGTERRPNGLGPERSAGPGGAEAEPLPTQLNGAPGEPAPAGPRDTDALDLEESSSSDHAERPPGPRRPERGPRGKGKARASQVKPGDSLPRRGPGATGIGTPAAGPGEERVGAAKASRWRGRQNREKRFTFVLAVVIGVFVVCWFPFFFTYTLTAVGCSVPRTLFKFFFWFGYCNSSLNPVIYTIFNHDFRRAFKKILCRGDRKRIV
Method: (§3) The TGFα shedding assay is known as an assay by which a signal transduction pathway of a GPCR can be detected and measured (Patent Document 3). When the signal transduction pathway of a GPCR is activated, fusion proteins of membrane-bound alkaline phosphatase (AP) and TGFα are cleaved by TACE (TNFα converting enzyme), which is a membrane protease, and AP-TGFα is released from the cells. This released AP is measured.
(§4) The TGFα shedding assay was performed according to the method disclosed in WO2015/128894A1.
(§5) Specifically, human embryonic kidney HEK293 cells were transfected with a plasmid vector containing the cDNA of alkaline phosphatase (AP) fused TGFα, a plasmid vector containing the cDNA of a fusion protein (Gaq/i) of an N-terminal peptide fragment of Ga protein Gaq and a C-terminal peptide fragment of Ga protein Gai, and a plasmid vector containing the cDNA of a target GPCR, 24 hours later a compound was added and cultured for 30 minutes, a GPCR agonist (5 nM noradrenaline) was added, one hour later half of the culture supernatant was transferred to a new plate to prepare a supernatant plate, and the remaining plate was used as a cell plate. Ap-nitrophenyl phosphate solution was added to each plate and allowed to stand, and when 0 hours and 2 hours had passed, the absorbance at 405 nm was measured using a plate reader.
(§6) The measured value was converted to AP activity (%) according to the method described in WO2015/128894A1, and the obtained value was used as % Shedding.

a2C adrenergic receptor = biological target: T4, a2C adrenergic receptor (Homo sapiens, UniProt P18825); experiment: as above; type: cell-based; conditions: 5 nM Noradrenaline stimulation, read-out: IC50, shedding assay, α2C
T4 construct: expressed in transfected cells; host or cells: HEK293
T4 sequence (P18825 1-462): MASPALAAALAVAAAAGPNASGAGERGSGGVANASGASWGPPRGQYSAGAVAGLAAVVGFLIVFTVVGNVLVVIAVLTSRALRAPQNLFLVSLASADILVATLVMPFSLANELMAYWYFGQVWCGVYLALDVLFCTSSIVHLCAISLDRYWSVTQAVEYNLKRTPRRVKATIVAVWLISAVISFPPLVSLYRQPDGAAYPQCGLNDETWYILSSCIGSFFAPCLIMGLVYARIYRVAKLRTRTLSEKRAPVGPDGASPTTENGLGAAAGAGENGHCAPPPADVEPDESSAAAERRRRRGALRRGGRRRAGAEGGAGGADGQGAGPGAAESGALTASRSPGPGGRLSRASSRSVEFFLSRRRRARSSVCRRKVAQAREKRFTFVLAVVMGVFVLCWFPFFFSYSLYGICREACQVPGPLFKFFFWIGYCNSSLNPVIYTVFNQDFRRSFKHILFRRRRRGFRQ
Method: as §3, §4, §5, §6

a2B adrenergic receptor [2] = biological target: T5, a2B adrenergic receptor (Homo sapiens, UniProt P18089); experiment: as above; type: cell-based; conditions: for IC50: 5 nM Noradrenaline stimulation, HEK293 cells, read-out: IC50, shedding assay, α2B
T5 construct: expressed in transfected cells; host or cells: HEK293
T5 sequence (P18089 1-450): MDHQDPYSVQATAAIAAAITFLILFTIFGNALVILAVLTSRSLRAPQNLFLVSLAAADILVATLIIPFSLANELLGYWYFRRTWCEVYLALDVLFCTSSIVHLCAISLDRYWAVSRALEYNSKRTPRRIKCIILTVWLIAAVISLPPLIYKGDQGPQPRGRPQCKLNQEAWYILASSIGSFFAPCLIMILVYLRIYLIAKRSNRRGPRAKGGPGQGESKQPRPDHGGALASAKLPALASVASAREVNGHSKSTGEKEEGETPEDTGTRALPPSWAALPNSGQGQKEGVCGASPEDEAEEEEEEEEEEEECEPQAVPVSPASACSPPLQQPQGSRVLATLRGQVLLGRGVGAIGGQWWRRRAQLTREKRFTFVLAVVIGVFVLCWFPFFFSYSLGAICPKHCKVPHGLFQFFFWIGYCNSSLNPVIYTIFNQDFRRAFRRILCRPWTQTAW
Method: as §3, §4, §5, §6

a2A adrenergic receptor [3] = biological target: T3, a2A adrenergic receptor; experiment: Binding affinity to a2 adrenergic receptors, tritium-labeled rauwolscine tracer; conditions: tritium-labeled rauwolscine as tracer
Method: (§7) [Binding Affinity to a2 Adrenergic Receptors]
(§8) The compound 1 was assayed for its inhibitory activity against a2A adrenergic receptor and a2B adrenergic receptor using rauwolscine with a methyl group labeled with tritium as a tracer, and binding affmity was examined. RauwoLscine is an antagonist that specifically binds to a2 adrenergic receptors.

a2B adrenergic receptor [4] = biological target: T5, a2B adrenergic receptor; experiment: as above; conditions: tritium-labeled rauwolscine as tracer
Method: as §7, §8

binding affinity to the a1B adrenergic receptor (a1B adrenergic receptor) | binding affinity to the a1A adrenergic receptor (a1A adrenergic receptor) | IC50 (a2A adrenergic receptor [1]) [µM] | IC50 (a2C adrenergic receptor) [µM] | IC50 (a2B adrenergic receptor [2]) [µM] | binding affinity (inhibitory activity) to a2B adrenergic receptor compared with a2A and a2C adrenergic receptor (a2B adrenergic receptor [2]; shedding assay, Table 1, a2B versus a2A and a2C) | binding affinity to a2A adrenergic receptor (a2A adrenergic receptor [3]) | binding affinity to a2B adrenergic receptor (a2B adrenergic receptor [4]) | binding affinity to a2B adrenergic receptor compared with a2A adrenergic receptor (a2B adrenergic receptor [4]; a2B versus a2A) | Compound
did not exhibit binding affinity | did not exhibit binding affinity | > 30 | > 30 | 1.2 | higher | exhibited selective binding affinity | exhibited selective binding affinity | higher | CCN1/C(=C/C(C)=O)Sc2ccc(F)cc21 [Compound 1, (1Z)-1-(3-ethyl-5-fluoro-2(3H)-benzothiazolylidene)-2-propanone]
– | – | > 30 | > 30 | > 30 | – | – | – | – | CCN1/C(=C/C(C)=O)Sc2ccc(OC)cc21 [Compound 2]
– | – | > 30 | > 30 | > 30 | – | – | – | – | CCN1/C(=C/C(C)=O)Sc2cc(OC)ccc21 [Compound 3, (1Z)-1-(3-ethyl-6-methoxy-2(3H)-benzothiazoylidene)-2-propanone]

Source: patent publication US20230372309A1, “ALPHA-2 ADRENERGIC RECEPTOR ANTAGONIST” (Kyoto University, priority 2020, published 2023)
